Measured values: patent US20150136233A1, “ORGANIC PHOTOVOLTAIC DEVICES COMPRISING FULLERENES AND DERIVATIVES” (The Regents of the University of California, priority 2013, published 2015)

Experiments:
[1] = LUMO energy level by cyclic voltammetry; format: physicochemical; details: for LUMO Energy Level: cyclic voltammetry, onset of first reduction, ferrocene internal reference, o-dichlorobenzene/acetonitrile 4:1
Experimental: The electronic property of the synthesized fullerenes are characterized by cyclic voltammetry (CV) using a Bio-Logic Multi-channel Potentiostat with Pt as a counter electrode, Ag/Ag+ as a reference electrode and ferrocene as an internal reference, with 4:1 v/v ratio of o-dichlorobenzene and acetonitrile as solvent and 0.1 M tetrabutylammonium hexafluorophosphate as electrolyte at a scan rate of 100 mV/s. […] The LUMO levels are calculated according to the following equation 2 using the onset of the first reduction. The data are listed in Table 2, LUMOs of C60, C70, PCBM, Bis-PCBM, ICMA and ICBA were measured under the same condition and listed too as reference.
ELUMO=[(EFLN(Vs Ag/Ag+)(E^1/2Ferrocene(Vs Ag/Ag+)]−4.8 eV (equation 2)

[2] = references [15, 18]; cited from earlier work

LUMO Energy Level [1] [eV] | LUMO higher than that of PCBM [1] [eV] | Compound | LUMO increase compared to pristine C60 [1] | LUMO of bis-addition fullerene higher than LUMO of the mono-addition fullerene (PCBM, ICMA respectively) [2]
−3.76 | – | 1′,4′-dihydro-naphtho[2′,3′:1,2][5,6]fullerene-C60 [IC60MA] | about 0.1 eV | –
−3.72 | 0.1 | bis(1-[3-(methoxycarbonyl)propyl]-1-phenyl)[6.6]C62 [Bis-PC61BM] | – | about 0.1 eV

Compound | LUMO Energy Level [1] [eV] | LUMO higher than that of PCBM [1] [eV] | LUMO increase compared to pristine C60 [1] | LUMO of bis-addition fullerene higher than LUMO of the mono-addition fullerene (PCBM, ICMA respectively) [2]
COC(=O)CCCC1(c2ccccc2)C23c4c5c6c7c8c9c(c%10c%11c2c2c%12c4c4c%13c5c5c7c7c8c8c%14c9c%10c9c%10c%11c2c2c%11c%12c4c4c%12c%13c5c5c7c7c8c8c%14c9c9c%10c2c2c%11c4c4c%12c5c7c5c8c9c2c45)C613 (stereo not shown) [PC61BM, [6,6]-phenyl C61-butyric acid methyl ester] | −3.80 | – | about 0.1 eV | –
